From ChEMBL document CHEMBL1129998, “Pharmacological options in the treatment of benign prostatic hyperplasia” (J Med Chem, 1997)

Tests used:
[1] = biological target: T1, Adrenergic receptor alpha-1 (Homo sapiens, UniProt P35348+P25100+P35368); assay: pA2 for Alpha-1 adrenergic receptor from human prostate.; type: tissue-based, Prostate gland
T1 sequence (P35348 whole entry): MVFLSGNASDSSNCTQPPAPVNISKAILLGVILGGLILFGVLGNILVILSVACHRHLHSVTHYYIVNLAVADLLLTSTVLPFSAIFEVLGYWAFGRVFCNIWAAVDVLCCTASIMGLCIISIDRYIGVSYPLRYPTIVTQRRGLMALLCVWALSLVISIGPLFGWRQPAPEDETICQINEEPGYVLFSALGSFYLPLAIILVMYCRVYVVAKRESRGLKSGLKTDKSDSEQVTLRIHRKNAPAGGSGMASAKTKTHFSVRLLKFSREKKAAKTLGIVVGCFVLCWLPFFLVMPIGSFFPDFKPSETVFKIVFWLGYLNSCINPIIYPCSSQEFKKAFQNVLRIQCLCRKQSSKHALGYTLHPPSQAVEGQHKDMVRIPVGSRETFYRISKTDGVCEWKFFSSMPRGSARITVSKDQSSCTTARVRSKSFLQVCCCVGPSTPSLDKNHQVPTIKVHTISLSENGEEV
T1 sequence (P25100 whole entry): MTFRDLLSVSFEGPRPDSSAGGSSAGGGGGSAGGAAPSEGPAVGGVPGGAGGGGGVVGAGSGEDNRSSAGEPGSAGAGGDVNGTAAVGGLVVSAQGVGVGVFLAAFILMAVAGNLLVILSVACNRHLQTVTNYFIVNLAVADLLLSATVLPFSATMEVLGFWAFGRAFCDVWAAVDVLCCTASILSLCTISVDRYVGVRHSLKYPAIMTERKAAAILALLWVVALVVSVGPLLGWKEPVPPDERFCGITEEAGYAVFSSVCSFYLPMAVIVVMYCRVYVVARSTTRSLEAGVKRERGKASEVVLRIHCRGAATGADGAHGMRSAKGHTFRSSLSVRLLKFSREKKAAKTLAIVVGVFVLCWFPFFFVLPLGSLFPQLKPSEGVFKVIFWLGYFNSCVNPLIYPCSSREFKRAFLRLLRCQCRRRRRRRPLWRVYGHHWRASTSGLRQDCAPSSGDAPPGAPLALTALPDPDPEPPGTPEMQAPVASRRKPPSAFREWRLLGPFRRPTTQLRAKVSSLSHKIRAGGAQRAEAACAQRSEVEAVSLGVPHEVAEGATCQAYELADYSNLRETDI
T1 sequence (P35368 whole entry): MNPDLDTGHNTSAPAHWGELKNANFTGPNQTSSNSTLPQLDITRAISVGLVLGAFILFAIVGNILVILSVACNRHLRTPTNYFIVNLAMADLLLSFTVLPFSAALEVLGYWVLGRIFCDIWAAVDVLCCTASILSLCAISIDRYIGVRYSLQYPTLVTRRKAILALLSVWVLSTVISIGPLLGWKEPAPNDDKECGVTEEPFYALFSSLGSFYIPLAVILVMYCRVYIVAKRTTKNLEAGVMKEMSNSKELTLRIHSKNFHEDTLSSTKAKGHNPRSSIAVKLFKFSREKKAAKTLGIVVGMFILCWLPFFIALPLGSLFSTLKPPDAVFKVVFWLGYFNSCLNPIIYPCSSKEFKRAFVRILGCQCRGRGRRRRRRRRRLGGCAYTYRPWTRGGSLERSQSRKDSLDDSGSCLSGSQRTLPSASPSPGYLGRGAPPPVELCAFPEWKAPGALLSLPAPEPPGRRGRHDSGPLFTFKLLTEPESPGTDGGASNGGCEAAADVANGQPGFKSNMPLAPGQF

[2] = biological target: T2, Alpha-1A adrenergic receptor (Homo sapiens, UniProt P35348); assay: Binding affinity was tested on human Alpha-1A adrenergic receptor
T2 sequence (P35348 whole entry): T1 sequence (P35348 whole entry)

[3] = biological target: T3, Alpha-1D adrenergic receptor (Homo sapiens, UniProt P25100); assay: Binding affinity was tested on human Alpha-1D adrenergic receptor
T3 sequence (P25100 whole entry): T1 sequence (P25100 whole entry)

[4] = biological target: T4, Alpha-1B adrenergic receptor (Homo sapiens, UniProt P35368); assay: Binding affinity was tested on human Alpha-1B adrenergic receptor
T4 sequence (P35368 whole entry): T1 sequence (P35368 whole entry)

[5] = biological target: T5, Alpha-1A adrenergic receptor (Rattus norvegicus, UniProt P43140); assay: Binding affinity was tested on CEC-pretreated rat hippocampus Alpha-1A adrenergic receptor; type: tissue-based
T5 sequence (P43140 whole entry): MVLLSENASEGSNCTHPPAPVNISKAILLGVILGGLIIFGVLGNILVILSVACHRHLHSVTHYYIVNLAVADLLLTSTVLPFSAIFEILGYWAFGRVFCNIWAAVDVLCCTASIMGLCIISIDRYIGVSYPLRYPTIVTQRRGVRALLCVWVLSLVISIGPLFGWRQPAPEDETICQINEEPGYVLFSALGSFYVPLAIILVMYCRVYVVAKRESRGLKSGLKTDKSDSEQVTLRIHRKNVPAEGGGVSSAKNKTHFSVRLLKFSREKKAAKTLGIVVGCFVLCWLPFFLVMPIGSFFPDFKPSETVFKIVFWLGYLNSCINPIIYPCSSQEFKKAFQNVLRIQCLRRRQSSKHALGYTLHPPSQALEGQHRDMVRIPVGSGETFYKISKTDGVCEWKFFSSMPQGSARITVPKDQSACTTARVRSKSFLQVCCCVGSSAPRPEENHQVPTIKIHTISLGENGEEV

[6] = biological target: T6, Alpha-1B adrenergic receptor (Rattus norvegicus, UniProt P15823); assay: Binding affinity was tested on CEC-pretreated rat liver Alpha-1B adrenergic receptor
T6 sequence (P15823 whole entry): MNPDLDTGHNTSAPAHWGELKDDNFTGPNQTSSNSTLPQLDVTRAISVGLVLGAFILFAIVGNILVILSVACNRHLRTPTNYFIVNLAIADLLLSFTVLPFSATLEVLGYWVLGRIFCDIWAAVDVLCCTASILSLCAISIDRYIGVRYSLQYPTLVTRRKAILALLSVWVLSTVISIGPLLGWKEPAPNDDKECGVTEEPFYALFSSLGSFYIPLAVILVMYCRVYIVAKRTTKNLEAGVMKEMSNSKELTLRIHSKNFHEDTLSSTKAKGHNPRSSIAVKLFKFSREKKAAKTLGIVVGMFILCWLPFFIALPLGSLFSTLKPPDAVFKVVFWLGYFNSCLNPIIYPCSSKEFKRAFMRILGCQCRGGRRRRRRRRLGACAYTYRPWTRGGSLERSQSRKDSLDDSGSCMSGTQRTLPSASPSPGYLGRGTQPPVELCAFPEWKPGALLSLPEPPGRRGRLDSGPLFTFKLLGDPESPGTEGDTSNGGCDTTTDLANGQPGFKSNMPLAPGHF

[7] = Dose (iv) for 20% reduction of mean blood pressure in rat (ID20) with the dose for 50% inhibition of norepinephrine-mediated contraction of proximal urethra (ID50) in cat; type: functional
[8] = Inhibitory concentration on human 5-alpha reductase isozyme
[9] = biological target: T7, Steroid 5-alpha-reductase (Rattus norvegicus, UniProt P24008+P31214); assay: Inhibition of rat 5-alpha reductase isozyme.; type: protein assay
T7 sequence (P24008 whole entry): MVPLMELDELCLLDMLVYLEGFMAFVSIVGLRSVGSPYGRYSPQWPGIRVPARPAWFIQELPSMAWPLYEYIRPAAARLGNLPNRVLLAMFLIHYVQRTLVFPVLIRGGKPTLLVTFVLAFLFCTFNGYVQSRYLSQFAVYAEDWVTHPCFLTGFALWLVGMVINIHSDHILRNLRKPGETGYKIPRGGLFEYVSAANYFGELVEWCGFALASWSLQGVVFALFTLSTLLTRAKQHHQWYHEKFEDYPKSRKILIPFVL
T7 sequence (P31214 whole entry): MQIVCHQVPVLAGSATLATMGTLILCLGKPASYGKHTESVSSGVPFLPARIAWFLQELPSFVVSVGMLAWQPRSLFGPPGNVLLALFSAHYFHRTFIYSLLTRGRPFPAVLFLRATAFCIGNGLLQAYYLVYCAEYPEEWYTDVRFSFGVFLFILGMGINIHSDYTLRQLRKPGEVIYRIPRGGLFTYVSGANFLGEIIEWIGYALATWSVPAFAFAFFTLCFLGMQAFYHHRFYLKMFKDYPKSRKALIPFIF

[10] = biological target: T7, Steroid 5-alpha-reductase; assay: Apparent binding affinity on rat 5-alpha reductase isozyme; type: protein assay
[11] = Apparent binding affinity on human 5-alpha reductase isozyme
[12] = biological target: T8, 3-oxo-5-alpha-steroid 4-dehydrogenase 2 (Homo sapiens, UniProt P31213); assay: Inhibitory concentration on human prostatic 5-alpha reductase 2 isozyme
T8 sequence (P31213 whole entry): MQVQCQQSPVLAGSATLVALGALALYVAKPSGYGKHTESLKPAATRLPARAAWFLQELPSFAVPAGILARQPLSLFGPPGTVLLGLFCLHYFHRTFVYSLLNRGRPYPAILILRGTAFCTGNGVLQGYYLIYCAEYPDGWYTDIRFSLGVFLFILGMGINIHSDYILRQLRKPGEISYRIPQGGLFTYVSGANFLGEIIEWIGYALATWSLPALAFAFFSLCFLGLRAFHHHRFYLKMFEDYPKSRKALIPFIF

| IC50 [8] | IC50 [9] | Structure (SMILES) | pA2 [1] | Ki [3] | Ki [4] | further results |
| --- | --- | --- | --- | --- | --- | --- |
| – | – | O=C(NC1CCN(CCc2c[nH]c3ccccc23)CC1)c1ccccc1 [INDORAMIN] | 8.7 | 158 nM | 39.8 nM | Ki [2]: 3.98 nM |
| – | – | Cc1c(-c2ccccc2)oc2c(C(=O)NCCCN3CCN(c4ccccc4OC(C)C)CC3)cccc2c1=O | – | – | – | IC50 [5]: 1 nM; IC50 [6]: 108 nM |
| – | – | NC(=O)c1ccnc(NCCCN2CCN(c3ccccc3C3CC3)CC2)n1 | – | – | – | Ratio [7]: 4 |
| – | – | CC(C)(Cc1c[nH]c2ccc(Cl)cc12)NCCOc1ccccc1OCC1CC1 | 7.3 | 15.8 nM | 15.8 nM | Ki [2]: 0.631 nM |
| 18 nM | 50 nM | CC(C)(C)NC(=O)[C@H]1CC[C@H]2[C@@H]3CC=C4C=C(C(=O)O)CC[C@]4(C)[C@H]3CC[C@]12C [EPRISTERIDE] | – | – | – | – |
| – | – | CC(C)N(C(=O)[C@H]1CCC2C3CC=C4C=C(CO)CC[C@]4(C)C3CC[C@@]21C)C(C)C (stereo partly specified) | – | – | – | Ki [10]: 5300 nM; Ki [11]: 4200 nM |
| 7 nM | 47 nM | CC(C)N(C(=O)C1=CCC2C3CCC4=CC(C(=O)O)=CC[C@]4(C)C3CC[C@]12C)C(C)C (stereo partly specified) | – | – | – | – |
| – | – | COc1ccccc1N1CCN(CCCNc2c(C)c(=O)n(C)c(=O)n2C)CC1 | 8.2 | 10 nM | 39.8 nM | Ki [2]: 0.631 nM |
| 35 nM | 70 nM | CC1=C(C(=O)O)CC[C@@]2(C)C1=CCC1C2CC[C@@]2(C)C1CC[C@@H]2C(=O)N(C(C)C)C(C)C (stereo partly specified) | – | – | – | – |
| – | – | CN1C(=O)CC[C@]2(C)C3CC[C@@]4(C)C(CC[C@@H]4C(=O)N(C(=O)NC4CCCCC4)C4CCCCC4)C3CCC12 (stereo partly specified) | – | – | – | IC50 [12]: 41 nM |
| 170 nM | 200 nM | CC1=C2C=C(C(=O)O)CC[C@]2(C)C2CC[C@@]3(C)C(CC[C@@H]3C(=O)c3cccc4ccccc34)C2C1 (stereo partly specified) | – | – | – | – |
| – | – | Cc1ccc(Cl)cc1N1CCN(CCCNC(=O)c2cccc3c(=O)c(C)c(-c4ccccc4)oc23)CC1 | – | – | – | IC50 [5]: 1 nM; IC50 [6]: 29 nM |
| – | – | C=Cc1sc2ccc(Cl)c3c2c1CN(C)CC3 | 7.5 | 3.16 nM | 20 nM | – |
